According to patent US3997549A, “N-arylsulfenylated derivatives of benzofuranyl methylcarbamates” (priority 1973, dated 1976):
Values after ≈ are worked out from the molar mass of the structure shown. Like-named read-outs stand apart in the source and are kept apart here.

Experiments:
[1] = tested on: Mexican bean beetle; test: Initial contact activity, Mexican bean beetle; details: Epilachna varivestis, 48 h, read-out: % Kill, BB (initial contact)
[2] = tested on: Mexican bean beetle; test: whole plant or invertebrate; details: Epilachna varivestis, 48 h, read-out: % Kill, BB (systemic)
[3] = tested on: two-spotted spider mite; test: whole plant or invertebrate; details: Tetranychus urticae, 48 h, read-out: % Kill, SM (systemic)
[4] = tested on: pea aphid; test: whole plant or invertebrate; details: Acyrthosiphon pisum, 48 h, read-out: % Kill, PA (systemic)
[5] = tested on: two-spotted spider mite; test: Residual contact activity, two-spotted spider mite; details: Tetranychus urticae, 48 h, read-out: % Kill, SM (residual contact)
[6] = tested on: pea aphid; test: Residual contact activity, pea aphid; details: Acyrthosiphon pisum, 48 h, read-out: % Kill, PA (residual contact)
[7] = tested on: confused flour beetle; test: Residual contact activity, confused flour beetle; type: in vivo; details: Tribolium confusum, 48 h, read-out: % Kill, FB (residual contact)
Description: (§1) Initial Contact Activity: One-half gram of test compound was dissolved in 40 ml of acetone and this solution was dispersed in 360 ml of water containing one drop of isooctyl phenyl polyethoxyethanol. An aliquot of this solution was diluted with water to provide a solution containing 1250 ppm of active ingredient. Test organisms and techniques were as follows: The activities against the Mexican bean beetle (Epilachna varivestis Muls.) and the southern army worm (Prodenia eridania [Cram.]) were evaluated by dipping the leaves of pinto bean plants into the test solution and infesting the leaves with the appropriate immature form insects when the foliage had dried; the activity against the pea aphid (Macrosiphum pisi [Harris]) was evaluated on broad bean plants whose leaves were dipped before infestation with adult aphids; the activity against the two-spotted spider mite (Tetranychus urticae [L.]) was evaluated on pinto bean plants whose leaves were dipped after infestation with adult mites; the activities against the milkweed bug (Oncopeltus fascinatus [Dallas]) and the plum curculio (Conotrachelus nenuphar [Herbst]) were evaluated by spraying the test solutions into glass dishes containing the adult insects; the activities against the granary weevil (Sitophilus granarius [L.]) and the confused flour beetle (Tribolium confusum [duVal]) were evaluated by introducing the insects into glass dishes which had been previously sprayed with test solution and allowed to dry. All organisms in the test were maintained in a holding room at 80° F. and 50% relative humidity for an exposure period of forty-eight hours. At this time the number of dead and living insects were counted and the percent kill was calculated.
The residual contact activity of the compounds was determined on the same organisms using the technique described above, except that in each case the treated surface was allowed to dry and was exposed to normal light and air for seven days before introduction of the mites or insects. The compounds show a high order of residual activity toward the test insects.

[8] = tested on: two-spotted spider mite; test: Initial contact activity, two-spotted spider mite; details: Tetranychus urticae, 48 h, read-out: % Kill, SM (initial contact)
[9] = tested on: plum curculio; test: Initial contact activity, plum curculio; details: Conotrachelus nenuphar, 48 h, read-out: % Kill, PC (initial contact)
[10] = tested on: houseflies; test: whole plant or invertebrate; details: Musca domestica, topical, 24 h, read-out: Houseflies LD50
Description: Toxicity of the compounds of the present invention to houseflies was tested using the technique described by March and Metcalf in Bull. Calif. State Dept. Agr. […] Adult female houseflies were treated with one drop of acetone solution, applied to the prothorax, using a syringe calibrated to deliver 1.00 ± 0.05 mm^3 drops. Twenty flies were treated at each dosage, each test compound was applied at 8 to 10 dosage levels. Each test was replicated three times. […] A one-inch square of cotton saturated with 40% sugar solution was provided for food in each carton. The cartons of flies were held in a constant temperature chamber at 60° F and 60% relative humidity for 24 hours before mortality counts were made. Flies totally unable to make crawling or walking movements were counted as dead. LD50 values were calculated in the conventional manner.

[11] = tested on: pea aphid; test: Initial contact activity, pea aphid; details: Acyrthosiphon pisum, 48 h, read-out: % Kill, PA (initial contact)
[12] = in vivo; details: mouse, po
Description: Acute oral toxicity of the compounds of the present invention to mice was determined after the manner of Hollingworth, Fukuto, and Metcalf in J. Agr. […] A dose of 0.25 ml of each solution was administered to each of four female white Swiss mice using the "bolus" - tipped syringe. […] Final mortality determinations were made forty-eight hours after treatment.

[13] = tested on: milkweed bug; test: Initial contact activity, milkweed bug; details: Oncopeltus fasciatus, 48 h, read-out: % Kill, MWB (initial contact)
[14] = tested on: southern army worm; test: Initial contact activity, southern army worm; details: 1250 ppm, 48 h exposure
[15] = tested on: southern army worm; details: 2880 min
[16] = tested on: granary weevil; test: Residual contact activity, granary weevil; details: Sitophilus granarius, 48 h, read-out: % Kill, GW (residual contact)
[17] = tested on: Mexican bean beetle; test: Residual contact activity, Mexican bean beetle; details: Epilachna varivestis, 48 h, read-out: % Kill, BB (residual contact)
[18] = tested on: confused flour beetle; test: Initial contact activity, confused flour beetle; type: in vivo; details: Tribolium confusum, read-out: % Kill, FB (initial contact)
Description: as §1

[19] = tested on: granary weevil; test: Initial contact activity, granary weevil; details: Sitophilus granarius, 48 h, read-out: % Kill, GW (initial contact)
[20] = tested on: milkweed bug; test: Residual contact activity, milkweed bug; details: Oncopeltus fasciatus, 48 h, read-out: % Kill, MWB (residual contact)
[21] = tested on: southern army worm; test: Residual contact activity, southern army worm; details: 1250 ppm; 7 days; 2880 min
[22] = tested on: plum curculio; test: Residual contact activity, plum curculio; details: Conotrachelus nenuphar, 48 h, read-out: % Kill, PC (residual contact)
[23] = tested on: Culex fatigans; test: whole plant or invertebrate; details: Culex quinquefasciatus, 24 h, read-out: Mosquitoes LC50
Description: The appropriate amount of stock solution was added with stirring to 100 ml of tap water and 20-25 fourth instar larvae of Culex fatigans were placed in the solution. After twenty-four hours, the counts were taken. Larvae not able to rise to the surface on touch were counted as dead. Each concentration was run in duplicate and each material was run on two or three different days. The average percent mortality was plotted against the logarithm of the concentration (in ppm) and the LC50 value determined by inspection.

[24] = 39 ppm soil watering, separate test vs carbofuran

SMILES | mortality at 1250 ppm [1] [%] | mortality at 39 ppm [2] [%] | mortality at 156 ppm [2] [%] | mortality at 39 ppm [3] [%] | mortality at 156 ppm [3] [%] | mortality at 39 ppm [4] [%] | mortality at 1250 ppm [5] [%] | mortality at 1250 ppm [8] [%] | mortality at 1250 ppm [9] [%] | LD50 [10] [mg/kg] | LD50 at 48 h [12] [mg/kg] | mortality at 1250 ppm [13] [%] | % Kill, AW (initial contact) [14] [%] | % Kill, AW (systemic) [15, 24] [%] | % Kill, AW (systemic) ([15]; 156 ppm soil watering) [%] | mortality at 1250 ppm [16] [%] | mortality at 1250 ppm [17] [%] | mortality at 1250 ppm [19] [%] | mortality at 1250 ppm [20] [%] | % Kill, AW (residual contact) [21] [%] | further results
Cc1cc(C(C)(C)C)ccc1SN(C)C(=O)Oc1cccc2c1OC(C)(C)C2 [Example VI, 2,3-Dihydro-2,2-dimethyl-7-benzofuranyl [4-(tert-butyl)-2-methylphenylthio] (methyl)carbamate] | 100 | 85 | 100 | 11 | 6 | 35 | 7 | 77 | 100 | 7.5 | 75 to 125 | 100 | 95 | 0 | 0 | 100 | 100 | 100 | 95 | 100 | mortality at 156 ppm [4]: 95%; mortality at 1250 ppm [6]: 0%; mortality at 1250 ppm ([7]; 1250 ppm, 7 days): 100%; mortality at 1250 ppm [11]: 0%; mortality at 1250 ppm ([18]; 1250 ppm, 48 h exposure): 90%; mortality at 1250 ppm [22]: 53%; LC50 [23]: 2 ng/mL (≈ 0.00501 µM)
Cc1ccc(SN(C)C(=O)Oc2cccc3c2OC(C)(C)C3)cc1 [IV, 2,3-Dihydro-2,2-dimethyl-7-benzofuranyl(methyl)(4-methylphenylthio)carbamate] | 100 | 100 | 100 | 24 | 64 | 100 | 94 | 100 | 100 | 9 | 100 to 125 | 100 | 100 | 100 | 100 | 100 | 100 | 100 | 100 | 100 | mortality at 1250 ppm [7]: 92%; mortality at 1250 ppm ([18]; 48 h): 100%; mortality at 1250 ppm [22]: 100%; LC50 [23]: 4.5 ng/mL (≈ 0.0131 µM)
Cc1ccccc1SN(C)C(=O)Oc1cccc2c1OC(C)(C)C2 [Example II, 2,3-Dihydro-2,2-dimethyl-7-benzofuranyl (methyl)(2-methylphenylthio)carbamate] | 100 | 100 | 100 | 5 | 5 | 100 | 13 | 28 | 100 | 3.7 | 100 to 125 | 100 | 100 | 85 | 100 | 100 | 100 | 100 | 100 | 100 | mortality at 1250 ppm ([7]; 1250 ppm, 7 days): 98%; mortality at 1250 ppm ([18]; 1250 ppm, 48 h exposure): 98%; mortality at 1250 ppm [22]: 100%; LC50 [23]: 4 ng/mL (≈ 0.0116 µM)
Cc1cccc(SN(C)C(=O)Oc2cccc3c2OC(C)(C)C3)c1 [Example X, 2,3-Dihydro-2,2-dimethyl-7-benzofuranyl (3-methylphenylthio)(methyl)carbamate] | 100 | 100 | 100 | 26 | 28 | 100 | 30 | 100 | 100 | 6.5 | 25 to 50 | 100 | 100 | 100 | 100 | 100 | 100 | 100 | 100 | 100 | mortality at 156 ppm [4]: 100%; mortality at 1250 ppm [6]: 100%; mortality at 1250 ppm ([7]; 1250 ppm, 7 days): 100%; mortality at 1250 ppm [11]: 100%; mortality at 1250 ppm ([18]; 1250 ppm, 48 h exposure): 100%; mortality at 1250 ppm [22]: 95%; LC50 [23]: 4 ng/mL (≈ 0.0116 µM)
